We go through ten molecules from ChEMBL document CHEMBL5291721, “A preclinical secondary pharmacology resource illuminates target-adverse drug reaction associations of marketed drugs” (Nat Commun, 2023).

In assay [1] the target is Delta-type opioid receptor (Homo sapiens, UniProt P41143).
The target in assay [2] is Beta-2 adrenergic receptor (Homo sapiens, UniProt P07550).
A further assay concerns the target T1, Endothelin-1 receptor (Homo sapiens, UniProt P25101).
T1 sequence (P25101 whole entry): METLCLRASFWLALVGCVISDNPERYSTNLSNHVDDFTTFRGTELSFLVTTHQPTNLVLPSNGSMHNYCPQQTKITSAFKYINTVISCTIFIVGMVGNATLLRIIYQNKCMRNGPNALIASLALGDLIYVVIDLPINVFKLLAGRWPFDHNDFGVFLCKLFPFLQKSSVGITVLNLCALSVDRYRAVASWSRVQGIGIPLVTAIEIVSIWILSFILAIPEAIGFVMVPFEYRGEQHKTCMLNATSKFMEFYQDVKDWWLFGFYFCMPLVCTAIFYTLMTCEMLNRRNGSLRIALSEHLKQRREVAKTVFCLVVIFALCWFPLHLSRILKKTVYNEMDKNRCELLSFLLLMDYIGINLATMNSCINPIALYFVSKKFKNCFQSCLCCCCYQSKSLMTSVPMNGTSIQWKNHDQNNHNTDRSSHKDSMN

Assay [3] concerns the target T2, Alpha-2A adrenergic receptor (Homo sapiens, UniProt P08913).
T2 sequence (P08913 whole entry): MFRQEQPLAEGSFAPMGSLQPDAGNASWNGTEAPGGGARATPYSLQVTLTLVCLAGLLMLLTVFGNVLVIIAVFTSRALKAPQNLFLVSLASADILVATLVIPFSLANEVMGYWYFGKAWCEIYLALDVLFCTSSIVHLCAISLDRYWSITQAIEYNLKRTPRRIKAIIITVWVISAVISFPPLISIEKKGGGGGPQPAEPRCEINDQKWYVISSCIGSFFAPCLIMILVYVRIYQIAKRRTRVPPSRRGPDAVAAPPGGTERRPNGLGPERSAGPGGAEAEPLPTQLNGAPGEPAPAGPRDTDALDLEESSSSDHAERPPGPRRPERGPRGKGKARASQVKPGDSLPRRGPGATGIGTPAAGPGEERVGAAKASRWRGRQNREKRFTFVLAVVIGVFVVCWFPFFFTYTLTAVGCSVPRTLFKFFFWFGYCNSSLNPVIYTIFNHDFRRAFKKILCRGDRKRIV
It is filed as functional, cell-based.

The next assay deals with Motilin receptor (Homo sapiens, UniProt O43193).
Another assay has as its target T3, Adenosine receptor A3 (Homo sapiens, UniProt P0DMS8).
T3 sequence (P0DMS8 whole entry): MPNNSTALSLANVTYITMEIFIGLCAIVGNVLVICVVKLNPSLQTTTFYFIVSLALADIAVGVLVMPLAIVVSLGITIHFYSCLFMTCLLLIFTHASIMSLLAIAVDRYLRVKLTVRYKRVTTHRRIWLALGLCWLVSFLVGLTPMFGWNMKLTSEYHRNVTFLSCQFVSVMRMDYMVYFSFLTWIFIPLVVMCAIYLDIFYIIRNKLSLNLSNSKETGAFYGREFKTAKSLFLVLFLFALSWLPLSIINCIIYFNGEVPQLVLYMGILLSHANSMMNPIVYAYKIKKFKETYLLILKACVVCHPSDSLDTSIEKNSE

Assay [4] addresses 3',5'-cyclic-AMP phosphodiesterase 4D (Homo sapiens, UniProt Q08499). It counts as functional.
Assay [5] deals with T4, 5-hydroxytryptamine receptor 1A (Homo sapiens, UniProt P08908).
T4 sequence (P08908 whole entry): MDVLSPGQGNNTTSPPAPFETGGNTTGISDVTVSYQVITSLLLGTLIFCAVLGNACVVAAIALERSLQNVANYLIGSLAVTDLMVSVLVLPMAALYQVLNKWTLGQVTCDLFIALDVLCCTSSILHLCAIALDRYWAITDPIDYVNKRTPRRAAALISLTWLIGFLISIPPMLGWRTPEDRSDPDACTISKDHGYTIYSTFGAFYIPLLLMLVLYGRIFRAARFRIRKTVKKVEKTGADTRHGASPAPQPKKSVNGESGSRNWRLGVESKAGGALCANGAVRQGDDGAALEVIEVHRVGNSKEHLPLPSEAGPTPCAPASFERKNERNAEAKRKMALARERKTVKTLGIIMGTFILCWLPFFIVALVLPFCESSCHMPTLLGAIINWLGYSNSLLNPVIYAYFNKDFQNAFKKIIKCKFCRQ
It is filed as functional, cell-based.

For another assay, the target named is T5, Thromboxane A2 receptor (Homo sapiens, UniProt P21731).
T5 sequence (P21731 whole entry): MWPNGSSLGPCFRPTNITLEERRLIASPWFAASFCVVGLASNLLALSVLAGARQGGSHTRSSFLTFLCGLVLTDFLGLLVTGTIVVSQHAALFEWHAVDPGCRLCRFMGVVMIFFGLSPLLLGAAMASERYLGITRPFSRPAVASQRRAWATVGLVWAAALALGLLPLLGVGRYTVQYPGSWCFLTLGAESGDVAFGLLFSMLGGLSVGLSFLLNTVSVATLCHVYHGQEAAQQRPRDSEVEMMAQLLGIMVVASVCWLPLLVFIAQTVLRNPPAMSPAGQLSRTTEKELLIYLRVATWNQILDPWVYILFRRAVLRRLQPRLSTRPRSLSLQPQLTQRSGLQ

A further assay has as its target Melanocortin receptor 3 (Homo sapiens, UniProt P41968).
The next assay addresses T6, Estrogen receptor (Homo sapiens, UniProt P03372).
T6 sequence (P03372 whole entry): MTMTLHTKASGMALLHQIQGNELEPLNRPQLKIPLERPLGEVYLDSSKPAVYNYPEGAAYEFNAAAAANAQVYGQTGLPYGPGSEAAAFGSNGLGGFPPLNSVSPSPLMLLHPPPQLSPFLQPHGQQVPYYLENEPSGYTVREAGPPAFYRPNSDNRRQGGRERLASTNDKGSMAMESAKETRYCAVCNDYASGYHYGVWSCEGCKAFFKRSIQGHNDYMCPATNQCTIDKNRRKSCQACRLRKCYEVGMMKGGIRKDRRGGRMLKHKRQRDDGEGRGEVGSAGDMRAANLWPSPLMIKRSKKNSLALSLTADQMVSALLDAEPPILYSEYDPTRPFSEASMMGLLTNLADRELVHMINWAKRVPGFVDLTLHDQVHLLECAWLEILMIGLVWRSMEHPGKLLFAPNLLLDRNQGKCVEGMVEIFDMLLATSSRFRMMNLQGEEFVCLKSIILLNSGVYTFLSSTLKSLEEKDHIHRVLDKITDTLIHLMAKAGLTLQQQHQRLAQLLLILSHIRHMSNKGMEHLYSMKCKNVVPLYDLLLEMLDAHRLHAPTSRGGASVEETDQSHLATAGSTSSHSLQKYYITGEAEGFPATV

In assay [6] the target is Sodium-dependent noradrenaline transporter (Homo sapiens, UniProt P23975).

Where only a bound is given, the exact number is not on record here.
Also: assay procedure not described here.

Sequence of Melanocortin receptor 3 (P41968 whole entry): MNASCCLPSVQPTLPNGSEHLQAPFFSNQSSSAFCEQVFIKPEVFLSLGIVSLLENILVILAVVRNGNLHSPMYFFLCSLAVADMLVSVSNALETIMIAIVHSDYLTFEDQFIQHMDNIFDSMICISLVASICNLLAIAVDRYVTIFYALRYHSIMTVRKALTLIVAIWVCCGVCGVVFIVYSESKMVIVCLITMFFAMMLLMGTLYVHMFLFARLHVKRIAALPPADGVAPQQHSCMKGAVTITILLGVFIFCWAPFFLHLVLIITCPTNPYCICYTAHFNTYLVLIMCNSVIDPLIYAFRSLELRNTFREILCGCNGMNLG
Sequence of Sodium-dependent noradrenaline transporter (P23975 whole entry): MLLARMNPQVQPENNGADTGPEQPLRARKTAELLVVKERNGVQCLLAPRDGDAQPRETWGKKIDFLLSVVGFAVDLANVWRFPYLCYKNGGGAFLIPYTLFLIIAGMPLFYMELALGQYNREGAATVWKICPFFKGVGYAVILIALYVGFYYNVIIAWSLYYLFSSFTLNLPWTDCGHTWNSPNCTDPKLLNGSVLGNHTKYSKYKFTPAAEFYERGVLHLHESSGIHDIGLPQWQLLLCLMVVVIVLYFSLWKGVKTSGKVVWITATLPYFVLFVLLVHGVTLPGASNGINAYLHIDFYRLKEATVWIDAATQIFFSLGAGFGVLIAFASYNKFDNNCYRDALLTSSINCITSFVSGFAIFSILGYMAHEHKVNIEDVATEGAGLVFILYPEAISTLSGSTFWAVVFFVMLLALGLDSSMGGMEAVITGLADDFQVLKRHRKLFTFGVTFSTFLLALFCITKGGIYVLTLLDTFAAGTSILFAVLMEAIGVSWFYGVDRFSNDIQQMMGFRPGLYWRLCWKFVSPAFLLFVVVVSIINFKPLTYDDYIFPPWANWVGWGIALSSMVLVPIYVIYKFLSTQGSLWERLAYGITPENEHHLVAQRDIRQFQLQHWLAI
Sequence of Beta-2 adrenergic receptor (P07550 whole entry): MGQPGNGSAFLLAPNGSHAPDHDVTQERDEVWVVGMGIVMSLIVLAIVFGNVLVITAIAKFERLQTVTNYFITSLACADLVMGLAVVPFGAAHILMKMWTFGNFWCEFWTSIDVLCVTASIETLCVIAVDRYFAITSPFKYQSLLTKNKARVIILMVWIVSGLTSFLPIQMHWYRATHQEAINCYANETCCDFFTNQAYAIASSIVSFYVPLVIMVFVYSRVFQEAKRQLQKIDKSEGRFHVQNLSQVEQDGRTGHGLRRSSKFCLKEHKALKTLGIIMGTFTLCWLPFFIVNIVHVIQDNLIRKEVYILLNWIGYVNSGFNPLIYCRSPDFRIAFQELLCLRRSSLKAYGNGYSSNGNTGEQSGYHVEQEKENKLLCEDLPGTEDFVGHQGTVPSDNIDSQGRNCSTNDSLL
Sequence of Motilin receptor (O43193 whole entry): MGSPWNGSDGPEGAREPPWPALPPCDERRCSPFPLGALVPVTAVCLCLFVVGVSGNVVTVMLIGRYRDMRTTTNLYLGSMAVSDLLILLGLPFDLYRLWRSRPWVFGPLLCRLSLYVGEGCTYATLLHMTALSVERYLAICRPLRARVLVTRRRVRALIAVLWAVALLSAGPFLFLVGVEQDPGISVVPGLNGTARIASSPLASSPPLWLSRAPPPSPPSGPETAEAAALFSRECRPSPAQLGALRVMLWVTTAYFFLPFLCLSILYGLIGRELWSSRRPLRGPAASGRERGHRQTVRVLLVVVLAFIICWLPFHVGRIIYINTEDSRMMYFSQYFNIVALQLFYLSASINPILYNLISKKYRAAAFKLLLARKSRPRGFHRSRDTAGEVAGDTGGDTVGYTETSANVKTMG
Sequence of 3',5'-cyclic-AMP phosphodiesterase 4D (Q08499 whole entry): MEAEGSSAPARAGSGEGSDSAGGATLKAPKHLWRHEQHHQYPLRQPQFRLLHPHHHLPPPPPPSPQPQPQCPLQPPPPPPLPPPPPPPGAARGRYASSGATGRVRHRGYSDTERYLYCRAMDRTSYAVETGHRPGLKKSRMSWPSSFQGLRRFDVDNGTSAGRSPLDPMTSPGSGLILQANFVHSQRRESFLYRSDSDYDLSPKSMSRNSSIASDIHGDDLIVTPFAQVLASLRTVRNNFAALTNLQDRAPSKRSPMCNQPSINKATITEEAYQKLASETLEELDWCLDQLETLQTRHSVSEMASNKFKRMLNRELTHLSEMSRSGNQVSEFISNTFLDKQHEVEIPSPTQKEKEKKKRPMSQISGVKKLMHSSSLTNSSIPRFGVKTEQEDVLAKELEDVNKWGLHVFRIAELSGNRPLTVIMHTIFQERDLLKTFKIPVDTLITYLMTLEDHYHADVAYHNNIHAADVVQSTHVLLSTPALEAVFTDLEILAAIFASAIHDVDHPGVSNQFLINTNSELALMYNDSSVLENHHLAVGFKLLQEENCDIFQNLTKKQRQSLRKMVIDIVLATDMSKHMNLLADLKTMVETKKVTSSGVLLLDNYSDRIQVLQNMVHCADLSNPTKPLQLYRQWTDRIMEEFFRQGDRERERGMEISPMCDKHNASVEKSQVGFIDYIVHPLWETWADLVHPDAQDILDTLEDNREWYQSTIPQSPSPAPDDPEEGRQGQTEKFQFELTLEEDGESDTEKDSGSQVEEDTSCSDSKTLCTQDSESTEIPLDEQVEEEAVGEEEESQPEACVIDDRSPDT
Sequence of Delta-type opioid receptor (P41143 whole entry): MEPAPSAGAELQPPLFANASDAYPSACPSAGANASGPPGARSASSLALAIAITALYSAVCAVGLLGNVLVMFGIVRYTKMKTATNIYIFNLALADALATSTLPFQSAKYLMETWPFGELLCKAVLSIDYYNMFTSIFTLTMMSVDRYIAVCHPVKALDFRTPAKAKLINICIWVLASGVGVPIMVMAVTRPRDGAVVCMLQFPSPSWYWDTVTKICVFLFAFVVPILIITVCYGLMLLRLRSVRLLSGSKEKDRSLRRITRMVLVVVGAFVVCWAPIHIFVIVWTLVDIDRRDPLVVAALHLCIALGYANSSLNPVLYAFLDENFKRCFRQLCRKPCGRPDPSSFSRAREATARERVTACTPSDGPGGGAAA

Take `N#Cc1ccccc1-c1cc(-c2ccccn2)cn(-c2ccccc2)c1=O`: the AC50 (in assay [1]; in [2]; at Endothelin-1 receptor; in [3]; on Motilin receptor; at Adenosine receptor A3) was > 30 µM each time. Besides, the AC50 (as a rule, the midpoint of the concentration-response curve, whichever way the signal moves) is 13 µM in assay [4]; > 30 µM in [5]; > 30 µM on Thromboxane A2 receptor; > 30 µM on Melanocortin receptor 3; > 30 µM at Estrogen receptor; > 30 µM in assay [6].
In the case of `N=C(N)NCCCCCCC(=O)NC(O)C(=O)NCCCCNCCCN` (centres undefined), the AC50 (in assay [1]; in assay [2]; on Endothelin-1 receptor; in assay [3]; on Motilin receptor; on Adenosine receptor A3) was > 30 µM each time. The AC50 (in [4]; in assay [5]; at Thromboxane A2 receptor; at Melanocortin receptor 3; on Estrogen receptor; in [6]) was > 30 µM each time.
As for `COc1ccc(/C=C/C(=O)Nc2ccccc2C(=O)O)cc1OC`, the AC50 (in assay [1]; in assay [2]; on Endothelin-1 receptor; in assay [3]; on Motilin receptor; at Adenosine receptor A3) was > 30 µM throughout. Also, the AC50 was 21 µM in assay [4]; > 30 µM in assay [5]; > 30 µM at Thromboxane A2 receptor; > 30 µM at Melanocortin receptor 3; > 30 µM at Estrogen receptor; > 30 µM in assay [6].
Regarding `O=C(CCCN1CCC(n2c(O)nc3ccccc32)CC1)c1ccc(F)cc1` [BENPERIDOL], the AC50 in [1] is > 30 µM; in assay [2], 8.6 µM; on Endothelin-1 receptor it was > 30 µM; in [3], > 30 µM; at Motilin receptor, 26 µM; on Adenosine receptor A3, > 30 µM. Besides, the AC50 was > 30 µM in [4]; 0.166 µM in assay [5]; > 30 µM on Thromboxane A2 receptor; > 30 µM at Melanocortin receptor 3; > 30 µM at Estrogen receptor; 12 µM in assay [6].
On to `CCC(=O)OCC(=O)[C@@]1(OC(=O)CC)[C@@H](C)C[C@H]2[C@@H]3CCC4=CC(=O)C=C[C@]4(C)[C@@]3(F)[C@@H](O)C[C@@]21C` [BETAMETHASONE DIPROPIONATE], for which the AC50 was > 30 µM in assay [2]; > 30 µM at Endothelin-1 receptor; > 30 µM in assay [3]; > 30 µM at Motilin receptor; 24 µM at Adenosine receptor A3; > 30 µM in assay [4]. Further, the AC50 in assay [5] was > 30 µM; at Thromboxane A2 receptor, > 30 µM; on Melanocortin receptor 3 it was > 30 µM; on Estrogen receptor it was > 10 µM; in assay [6], > 30 µM.
Consider `CCOC(=O)NNc1ccc(N(CC)CC(C)O)nn1` (centres undefined) [CADRALAZINE], for which the AC50 (in assay [1]; in [2]; at Endothelin-1 receptor; in assay [3]; on Motilin receptor; on Adenosine receptor A3) was > 30 µM throughout. Also, the AC50 was > 30 µM in assay [4]; 27 µM in assay [5]; > 30 µM on Thromboxane A2 receptor; > 30 µM at Melanocortin receptor 3; > 30 µM at Estrogen receptor; > 30 µM in assay [6].
Consider `CCCC(C)(COC(N)=O)COC(=O)NC(C)C` (centres undefined) [CARISOPRODOL], for which the AC50 was > 30 µM in [1]; > 10 µM in assay [2]; > 30 µM on Endothelin-1 receptor; > 10 µM in assay [3]; > 10 µM on Motilin receptor; > 30 µM at Adenosine receptor A3. The AC50 is > 30 µM in assay [4]; > 10 µM in assay [5]; > 30 µM at Thromboxane A2 receptor; > 30 µM at Melanocortin receptor 3; > 30 µM on Estrogen receptor; > 10 µM in [6].
As to `CC(=O)OCC(CCn1cnc2cnc(N)nc21)COC(C)=O` [FAMCICLOVIR], the AC50 in [1] is > 30 µM; in assay [2], > 10 µM; at Endothelin-1 receptor it was > 30 µM; in [3], > 10 µM; at Motilin receptor it was > 10 µM; at Adenosine receptor A3, > 30 µM. For the same molecule, the AC50 in [4] was > 30 µM; in assay [5] it was > 10 µM; on Thromboxane A2 receptor, > 30 µM; on Melanocortin receptor 3 it was > 30 µM; on Estrogen receptor it was > 30 µM; in assay [6], > 10 µM.
Turning to `O=C(O)c1ccccc1Nc1cccc(C(F)(F)F)c1` [FLUFENAMIC ACID], the AC50 in assay [1] was > 30 µM; in assay [2], > 10 µM; at Endothelin-1 receptor, > 30 µM; in assay [3], > 30 µM; at Motilin receptor it was > 10 µM; on Adenosine receptor A3 it was 26.3 µM. The AC50 was > 30 µM in [4]; 15 µM in assay [5]; > 30 µM at Thromboxane A2 receptor; > 30 µM on Melanocortin receptor 3; > 30 µM at Estrogen receptor; > 30 µM in assay [6].
`C#C[C@]1(O)CC[C@H]2[C@@H]3CCC4=CC(=O)CCC4=C3C=C[C@@]21CC` [GESTRINONE]: the concentration at half-maximal activity (AC50) in [1] was > 30 µM; in assay [2] it was > 30 µM; on Endothelin-1 receptor, > 30 µM; in assay [3], > 30 µM; at Motilin receptor, > 30 µM; on Adenosine receptor A3, 22 µM. Moreover, the concentration at half-maximal activity (AC50) in assay [4] is 4.1 µM; in assay [5] it was > 30 µM; at Thromboxane A2 receptor it was > 30 µM; at Melanocortin receptor 3, > 30 µM; at Estrogen receptor, 6.1 µM; in [6], > 30 µM.
